Data taken from US12440498B2 (priority 2020, dated 2025).

Assays:
A/H1N1 virus = assay: microbe, parasite or virus in culture; format: cell-based, influenza A virus; conditions: Influenza A virus, H1N1, MDCK, read-out: IC50 baloxavir (active form)
[1] = tested on: A/H1N1 I38T (I38T mutation on the PA subunit, baloxavir-resistant); format: cell-based, influenza A virus
[2] = tested on: influenza virus with M431I substitution in PB2; conditions: cited from earlier work

O=C1c2c(O)c(=O)ccn2N([C@@H]2c3ccccc3SCc3c2ccc(F)c3F)[C@@H]2COCCN12 [baloxavir, baloxavir acid] showed an IC50 (A/H1N1 virus) of 200 pM.

For COc1ccc([C@@H]2Sc3ccccc3N(CCN(C)C)C(=O)[C@@H]2OC(C)=O)cc1.Cl [diltiazem], the “transepithelial resistance (TEER), integrity of infected epithelia” value [1] was “remain stable”.

For O=C(O)[C@H]1C2CCC(CC2)[C@@H]1Nc1nc(-c2c[nH]c3ncc(F)cc23)ncc1F [pimodivir], the decrease in sensitivity [2] is given as “around 60 fold”.
